Experimental data from patent US5547978A, “Derivatives of pyrrolidin-2-ylcarbonylheterocyclic compounds” (priority 1994, dated 1996).
pIC50: −log10 of the molar value. Read-outs that look alike come from different tables or passages of the source.

Target: T1, prolyl endopeptidase (Sus scrofa, UniProt P23687)
T1 construct: porcine kidney enzyme which was prepared according to methods of Walter and Yoshimoto et al; from tissue; host or cells: porcine kidney
Test: Prolyl endopeptidase-inhibitory activity in vitro (porcine kidney enzyme, Z-Gly-Pro-p-nitroanilide substrate)
Type: biochemical
Protocol: A test compound (2 mg) was dissolved in DMSO (2 ml) and diluted to appropriate concentrations with DMSO. Z-Gly-Pro-p-nitroanilide (8 mg), a substrate was dissolved in dioxane (5 ml), water (27 ml) and 0.2 M phosphate buffer (pH 7.8, 40 ml). The substrate solution ([…]) was mixed with an inhibitor solution (3 ml) and followed by addition of above mentioned porcine kidney enzyme solution ([…]). Immediately after the mixing the UV absorbance at 405 nm was detected. The mixture was incubated at 37° C. for 20 min. and the UV absorbance was checked. A standard curve of absorbance (OD) vs. p-nitroaniline concentration was used to relate the absorbance to amount of substrate hydrolyzed. […] The inhibiting activity was obtained following the equation below. The IC50 value was estimated from the inhibitor concentration vs. inhibitory activity curve.
The percent inhibitory activity (%)=(ΔODc -ΔODs)/ΔODc ×100
ΔODs : ΔOD for test sample

[1] = porcine kidney enzyme, pH 7.8, 37° C., 20 min
[2] = porcine kidney enzyme, pH 7.8, 37° C., 20 min, read-out: IC50 (converted)

T1 sequence (P23687 whole entry): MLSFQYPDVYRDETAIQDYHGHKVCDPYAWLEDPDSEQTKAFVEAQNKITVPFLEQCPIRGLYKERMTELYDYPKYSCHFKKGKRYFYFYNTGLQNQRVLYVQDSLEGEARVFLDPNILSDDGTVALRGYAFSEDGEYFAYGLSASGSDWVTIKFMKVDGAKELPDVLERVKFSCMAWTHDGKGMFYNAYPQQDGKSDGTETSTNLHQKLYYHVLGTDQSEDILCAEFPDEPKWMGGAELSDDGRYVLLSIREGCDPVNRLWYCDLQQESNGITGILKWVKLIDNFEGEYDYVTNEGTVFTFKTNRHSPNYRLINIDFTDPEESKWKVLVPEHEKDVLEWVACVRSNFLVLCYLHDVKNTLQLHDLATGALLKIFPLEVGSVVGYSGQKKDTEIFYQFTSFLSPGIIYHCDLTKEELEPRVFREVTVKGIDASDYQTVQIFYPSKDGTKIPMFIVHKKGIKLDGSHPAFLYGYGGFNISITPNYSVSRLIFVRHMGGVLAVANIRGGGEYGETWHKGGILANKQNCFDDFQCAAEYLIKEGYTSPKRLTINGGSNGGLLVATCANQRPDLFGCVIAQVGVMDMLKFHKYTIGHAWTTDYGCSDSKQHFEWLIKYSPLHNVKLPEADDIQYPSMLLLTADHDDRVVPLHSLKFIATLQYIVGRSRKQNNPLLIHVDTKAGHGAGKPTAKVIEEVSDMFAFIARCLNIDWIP

| Compound | pIC50 | other results |
| --- | --- | --- |
| 2-[1-{1-(4-Phenylbutanoyl)indolin-2(S)-ylcarbonyl}pyrrolidin-2(S)-ylcarbonyl]oxazole [Example 24] |  | IC50 [1]: 0.0055 µg/mL |
| 2-[1-{1-(4-Phenylbutanoyl)pyrrolidin-2(S)-ylcarbonyl}pyrrolidin-2(S)-ylcarbonyl]oxazole [Example 23] |  | IC50 [1]: 0.0032 µg/mL |
| 2-[1-{1-(4-Phenylbutanoyl)pyrrolidin-2(S)-ylcarbonyl}pyrrolidin-2(S)-ylcarbonyl]pyrazole [Example 35] |  | IC50 [1]: 0.046 µg/mL |
| O=C(c1nccs1)[C@@H]1CCCN1C(=O)[C@@H]1C[C@@H](Sc2ccccc2)CN1C(=O)OCc1ccccc1 [Example 2, 2-[1-{1-Benzyloxycarbonyl-4(R)-phenylthiopyrrolidin-2(S)-ylcarbonyl}pyrrolidin-2(S)-ylcarbonyl]thiazole] | 8.32 |  |
| O=C(c1cocn1)[C@@H]1CCCN1C(=O)[C@@H]1Cc2ccccc2N1C(=O)OCc1ccccc1 [Example 3, 4-{1-(1-Benzyloxycarbonylindolin-2(S)-ylcarbonyl)pyrrolidin2(S) -ylcarbonyl}oxazole] | 8.02 |  |
| O=C(c1nccs1)[C@@H]1CCCN1C(=O)[C@@H]1CCCN1C(=O)OCc1ccccc1 [Example 4, 2-{1-(1-Benzyloxycarbonylpyrrolidin-2(S)-ylcarbonyl)pyrrolidin-2(S)-ylcarbonyl}thiazole] | 8.24 |  |
| O=C(c1nccs1)[C@@H]1CCCN1C(=O)[C@@H]1CCCN1C(=O)CCCc1ccccc1 [Example 5, 2-[1-{1(4-Phenylbutanoyl)pyrrolidin-2(S)-ylcarbonyl}pyrrolidin-2(S)-ylcarbonyl]thiazole] |  | IC50 [1]: 0.00133 µg/mL |
| O=C(c1nccs1)[C@@H]1CCCN1C(=O)[C@@H]1CC2CCCCC2N1C(=O)OCc1ccccc1 (stereo partly drawn) [Example 6, 2-{1(1-Benzyloxycarbonyloctahydroindol-2(S)-ylcarbonyl)pyrrolidin-2(S)ylcarbonyl}thiazole] | 8.37 |  |
| O=C(c1nccs1)[C@@H]1CCCN1C(=O)[C@@H]1CC2CCCCC2N1C(=O)CCCc1ccccc1 (stereo partly drawn) [Example 7, 2-[1-{1-(4-Phenylbutanoyl)octahydroindol-2(S)-ylcarbonyl}pyrrolidin-2(S)-ylcarbonyl]thiazole] | 8.62 |  |
| O=C(c1nccs1)[C@@H]1CCCN1C(=O)[C@@H]1Cc2ccccc2N1C(=O)OCc1ccccc1 [Example 8, 2-{1-(1-Benzyloxycarbonylindolin-2(S)-ylcarbonyl)pyrrolidin-2(S)-ylcarbonyl}thiazole] | 8.43 |  |
| O=C(c1nccs1)[C@@H]1CCCN1C(=O)[C@@H]1Cc2ccccc2N1C(=O)CCCc1ccccc1 [Example 9, 2-[1-{1-(4-Phenylbutanoyl)indolin-2(S)-ylcarbonyl}pyrrolidin-2(S)-ylcarbonyl]thiazole] | 8.26 |  |
| O=C(c1nccs1)[C@@H]1CCCN1C(=O)[C@@H]1C[C@@H](Sc2ccccc2)CN1C(=O)CCCc1ccccc1 [Example 10, 2-[1-{1-(4-Phenylbutanoyl)-4(R)-phenylthiopyrrolidin-2(S)-ylcarbonyl}-pyrrolidin-2(S)-ylcarbonyl]thiazole] | 8.95 |  |
| O=C(CSCc1ccccc1)C1CCCC1C(=O)N1CCC[C@H]1C(=O)c1nccs1 (stereo partly drawn) [Example 15, 2-[1-{2-Benzylthioacetylcyclopentan-1-ylcarbonyl)pyrrolidin-2(S)-ylcarbonyl}thiazole] |  | pIC50 [1]: 7.27 |
| O=C(CSCc1ccccc1)C1CCCCC1C(=O)N1CCC[C@H]1C(=O)c1nccs1 (stereo partly drawn) [Example 16, 2-[1-(2-Benzylthioacetylcyclohexan-1-ylcarbonyl)pyrrolidin-2(S)-ylcarbonyl]thiazole] | 7.27 |  |
| O=C(c1nc2ccccc2s1)[C@@H]1CCCN1C(=O)[C@@H]1CCCN1C(=O)OCc1ccccc1 [Example 17, 2-{1-(1-Benzyloxycarbonylpyrrolidin-2(S)-ylcarbonyl)pyrrolidin-2(S)-ylcarbonyl}benzothiazole] | 8.42 |  |
| O=C(c1nc2ccccc2s1)[C@@H]1CCCN1C(=O)[C@@H]1Cc2ccccc2N1C(=O)OCc1ccccc1 [Example 18, 2-{1-(1-Benzyloxycarbonylindolin-2(S)-ylcarbonyl)pyrrolidin-2(S)-ylcarbonyl}benzothiazole] | 8.13 |  |
| O=C(c1nc2ccccc2s1)[C@@H]1CCCN1C(=O)[C@@H]1Cc2ccccc2N1C(=O)CCCc1ccccc1 [Example 19, 2-[1-{1-(4-Phenylbutanoyl)indolin-2(S)-ylcarbonyl}pyrrolidin-2(S)-ylcarbonyl]benzothiazole] | 8.26 |  |
| O=C(c1nc2ccccc2s1)[C@@H]1CCCN1C(=O)[C@@H]1C[C@@H](Sc2ccccc2)CN1C(=O)OCc1ccccc1 [Example 20, 2-{1-(1-Benzyloxycarbonyl-4(R)-phenylthiopyrrolidin-2(S)-ylcarbonyl)pyrrolidin-2(S)-ylcarbonyl}benzothiazole] | 8.61 |  |

| Compound | pIC50 | other results |
| --- | --- | --- |
| O=C(c1nc2ccccc2s1)[C@@H]1CCCN1C(=O)[C@@H]1C[C@@H](Sc2ccccc2)CN1C(=O)CCCc1ccccc1 [Example 21, 2-[1-{1-(4-Phenylbutanoyl)-4(R)-phenylthiopyrrolidin-2(S)-ylcarbonyl}pyrrolidin-2(S)-ylcarbonyl]benzothiazole] | 8.75 |  |
| O=C(CSCc1ccccc1)C1CCCCC1C(=O)N1CCC[C@H]1C(=O)c1nc2ccccc2s1 (stereo partly drawn) [Example 22, 2-[1-(2-Benzylthioacetylcyclohexan-1-ylcarbonyl)pyrrolidin-2(S)-ylcarbonyl]benzothiazole] | 7.90 |  |
| O=C(c1cccs1)[C@@H]1CCCN1C(=O)[C@@H]1CCCN1C(=O)OCc1ccccc1 [Example 25] |  | IC50 [2]: 1380 nM |
| O=C(c1cccs1)[C@@H]1CCCN1C(=O)[C@@H]1CCCN1C(=O)CCCc1ccccc1 [Example 26, 2-[1-{1-(4-Phenylbutanoyl)pyrrolidin-2(S)-ylcarbonyl}pyrrolidin-2(S)-ylcarbonyl]thiophene] |  | IC50 [1]: 0.81 µg/mL |
| Cc1nc(C(=O)[C@@H]2CCCN2C(=O)[C@@H]2CCCN2C(=O)CCCc2ccccc2)sc1C [Example 27, 4,5-Dimethyl-2-[1-{1-(4-phenylbutanoyl)pyrrolidin-2(S)-ylcarbonyl}pyrrolidin-2(S)-ylcarbonyl]thiazole] | 8.22 |  |
| O=C(c1ncc[nH]1)[C@@H]1CCCN1C(=O)[C@@H]1CCCN1C(=O)CCCc1ccccc1 [Example 28, 2-[1-{1-(4-Phenylbutanoyl)pyrrolidin-2(S)-ylcarbonyl}pyrrolidin-2(S)-ylcarbonyl]-1H-imidazole] |  | IC50 [2]: 6.24 nM |
| O=C(c1nc2ccccc2[nH]1)[C@@H]1CCCN1C(=O)[C@@H]1CCCN1C(=O)CCCc1ccccc1 [Example 29, 2-[1-{1-(4-Phenylbutanoyl)pyrrolidin-2(S)-ylcarbonyl}pyrrolidin-2(S)-ylcarbonyl]-1H-benzimidazole] | 8.42 |  |
| O=C(c1cccnc1)[C@@H]1CCCN1C(=O)[C@@H]1CCCN1C(=O)CCCc1ccccc1 [Example 30, 3-[1-{1-(4-Phenylbutanoyl)pyrrolidin-2(S)-ylcarbonyl}pyrrolidin-2(S)-ylcarbonyl]pyridine] | 5.58 |  |
| O=C(c1cncnc1)[C@@H]1CCCN1C(=O)[C@@H]1CCCN1C(=O)CCCc1ccccc1 [Example 31, 5-[1-{1-(4-Phenylbutanoyl)pyrrolidin-2(S)-ylcarbonyl}pyrrolidin-2(S)-ylcarbonyl]pyrimidine] | 7.19 |  |
| O=C(c1ccccn1)[C@@H]1CCCN1C(=O)[C@@H]1CCCN1C(=O)CCCc1ccccc1 [Example 32, 2-[1-{1-(4-Phenylbutanoyl)pyrrolidin-2(S)-ylcarbonyl}pyrrolidin-2(S)-ylcarbonyl]pyridine] | 8.15 |  |
| O=C(c1cncs1)[C@@H]1CCCN1C(=O)[C@@H]1CCCN1C(=O)CCCc1ccccc1 [Example 33, 5-[1-{1-(4-Phenylbutanoyl)pyrrolidin-2(S)-ylcarbonyl}pyrrolidin-2(S)-ylcarbonyl]thiazole] |  | IC50 [1]: 0.275 µg/mL |
| O=C(c1nc[nH]n1)[C@@H]1CCCN1C(=O)[C@@H]1CCCN1C(=O)CCCc1ccccc1 [Example 34, 3-[1-{1-(4-Phenylbutanoyl)pyrrolidin-2(S)-ylcarbonyl}pyrrolidin-2(S)-ylcarbonyl]1,2,4-triazole] | 8.21 |  |
| O=C(c1nc2ccccc2o1)[C@@H]1CCCN1C(=O)[C@@H]1CCCN1C(=O)CCCc1ccccc1 [Example 36, 2-[1-{1-(4-Phenylbutanoyl)pyrrolidin-2(S)-ylcarbonyl}pyrrolidin-2(S)-ylcarbonyl]benzoxazole] | 8.38 |  |
| O=C(c1nc2ncccc2o1)[C@@H]1CCCN1C(=O)[C@@H]1CCCN1C(=O)CCCc1ccccc1 [Example 37, 2-[1 -{1-(4-Phenylbutanoyl)pyrrolidin-2(S)-ylcarbonyl}pyrrolidin-2(S)-ylcarbonyl]oxazolo[4,5-b]pyridine] | 8.32 |  |
| O=C(c1nc2ncccc2[nH]1)[C@@H]1CCCN1C(=O)[C@@H]1CCCN1C(=O)CCCc1ccccc1 [Example 38, 2-[1-{1-(4-Phenylbutanoyl)pyrrolidin-2(S)-ylcarbonyl}pyrrolidin-2(S)-ylcarbonyl]imidazo[4,5-b]pyridine] | 8.22 |  |
| O=C(c1nc2ccccc2[nH]1)[C@@H]1CCCN1C(=O)[C@@H]1CCCN1C(=O)OCc1ccccc1 [Example 39] | 8.12 |  |
| COc1nccnc1C(=O)[C@@H]1CCCN1C(=O)[C@@H]1CCCN1C(=O)CCCc1ccccc1 [Example 40, 2-Methoxy-3-[1-{1-(4-phenylbutanoyl)pyrrolidine-2(S)-ylcarbonyl}pyrrolidin-2(S)-ylcarbonyl]pyrazine] | 7.48 |  |
